≈ marks a conversion by molar mass, not a printed value. Read-outs that look alike come from different tables or passages of the source.
Experiments:
[1] = Kinetic solubility study in aqueous buffers (HPLC of mother liquors); type: physicochemical; conditions: for solubility at 30 min: aqueous buffer, thermodynamic from solid, read-out: highest solubility; for Conc 1st duplicate / Conc 2nd duplicate / Conc Average: room temperature
Experimental: Each sample was analyzed in duplicate. Cocrystals form J and G as well as the crystalline form III were previously grounded with mortar and pestle to reduce the particle size effects. […] At scheduled timing (0.5 h, 1 h, 3 h, 5 h, 24 h), aliquots of approximately 3 ml were withdrawn and filtered. Mother liquors were analyzed in triplicate by HPLC, and their pH values checked by pH me[…]/conductometer, Methron).

[2] = Wettability analysis (contact angle, ultrapure water); type: physicochemical; conditions: room temperature
Experimental: Wettability analysis has been carried out by a contact angle meter (Kyowa Interface Science, made in Japan, model: DMe-211Plus) with FAMAS software for data processing.
The contact angle of cocrystals (Form J and G) and Form III (reference) was evaluated at room temperature using ultrapure water (by MilliQ system). Cocrystals (Form J and G) and Form III were previously grounded with a mortar and pestle to limit the effect of particle sizes. Then, approximately 27 mg of each sample were collected on a glass substrate limited to a Teflon O-ring (6.0 mm diameter) and gently leveled by a spatula. The contact time between the drop and sample was set at 9 s and the aqueous falling volume was 2.0 μl.

CCC(=O)O[C@]1(C(=O)CO)CC[C@H]2[C@@H]3CCC4=CC(=O)CC[C@]4(C)[C@H]3CC[C@@]21C [Form III, cortexolone 17α-propionate]
solubility at 30 min ([1]; acetate buffer, pH 5.1, room temperature, maximum over 0.5-24 h (Form J and G after 1 h, Form III after 30 min)): 18.07 ± 0.06 µg/mL (≈ 44.9 µM)
dissolution (in words) ([1]; pH 5.1, room temperature): faster than the one at pH 6.0
Conc 1st duplicate ([1]; pH 5.1 buffer, 30 min): 18070 ng/mL
Conc 2nd duplicate ([1]; pH 5.1 buffer, 30 min): 18120 ng/mL
Conc Average ([1]; pH 5.1 buffer, 30 min): 18070 ng/mL
Conc 1st duplicate ([1]; pH 5.1 buffer, 1 h): 10020 ng/mL
Conc 2nd duplicate ([1]; pH 5.1 buffer, 1 h): 10000 ng/mL
Conc Average ([1]; pH 5.1 buffer, 1 h): 10010 ng/mL
Conc 1st duplicate ([1]; pH 5.1 buffer, 3 h): 16960 ng/mL
Conc 2nd duplicate ([1]; pH 5.1 buffer, 3 h): 16820 ng/mL
Conc Average ([1]; pH 5.1 buffer, 3 h): 16890 ng/mL
Conc 1st duplicate ([1]; pH 5.1 buffer, 5 h): 14680 ng/mL
Conc 2nd duplicate ([1]; pH 5.1 buffer, 5 h): 15020 ng/mL
Conc Average ([1]; pH 5.1 buffer, 5 h): 14770 ng/mL
Conc 1st duplicate ([1]; pH 5.1 buffer, 24 h): 2590 ng/mL
Conc 2nd duplicate ([1]; pH 5.1 buffer, 24 h): 2600 ng/mL
Conc Average ([1]; pH 5.1 buffer, 24 h): 2600 ng/mL
Conc 1st duplicate ([1]; pH 6.0 buffer, 30 min): 4380 ng/mL
Conc 2nd duplicate ([1]; pH 6.0 buffer, 30 min): 4370 ng/mL
Conc Average ([1]; pH 6.0 buffer, 30 min): 4380 ng/mL
Conc 1st duplicate ([1]; pH 6.0 buffer, 1 h): 3580 ng/mL
Conc 2nd duplicate ([1]; pH 6.0 buffer, 1 h): 3560 ng/mL
Conc Average ([1]; pH 6.0 buffer, 1 h): 3570 ng/mL
Conc 1st duplicate ([1]; pH 6.0 buffer, 3 h): 11150 ng/mL
Conc 2nd duplicate ([1]; pH 6.0 buffer, 3 h): 10970 ng/mL
Conc Average ([1]; pH 6.0 buffer, 3 h): 11060 ng/mL
Conc 1st duplicate ([1]; pH 6.0 buffer, 5 h): 1920 ng/mL
Conc 2nd duplicate ([1]; pH 6.0 buffer, 5 h): 1920 ng/mL
Conc Average ([1]; pH 6.0 buffer, 5 h): 1920 ng/mL
Conc 1st duplicate ([1]; pH 6.0 buffer, 24 h): 4020 ng/mL
Conc 2nd duplicate ([1]; pH 6.0 buffer, 24 h): 4030 ng/mL
Conc Average ([1]; pH 6.0 buffer, 24 h): 4020 ng/mL
solubility at 30 min ([1]; phosphate buffer, pH 6.0, room temperature, maximum over 0.5-24 h (Form J and Form III 30 min, Form G after 1 h)): 15.97 ± 0.04 µg/mL (≈ 39.7 µM)
Wettability character (hydrophilic: contact angle <90 degrees; hydrophobic: >90 degrees) [2]: hydrophilic
Contact angle Sample 1 ([2]; 2.0 μl drop, contact time 9 s): 76.8 degrees
Contact angle Sample 2 ([2]; 2.0 μl drop, contact time 9 s): 75.0 degrees
Contact angle Sample 3 ([2]; 2.0 μl drop, contact time 9 s): 81.2 degrees
Contact angle Average ([2]; average of samples 1-3): 77.67 degrees

Source: patent US20260226092A1, “COCRYSTALS OF CORTEXOLONE 17-PROPIONATE AND METHODS FOR THEIR PREPARATION” (Farmabios S.p.A., priority 2023, published 2026)
